In ChEMBL document CHEMBL4831528, “Discovery of Novel Pterostilbene-Based Derivatives as Potent and Orally Active NLRP3 Inflammasome Inhibitors with Inflammatory Activity for Colitis” (J Med Chem, 2021):

Test system: not listed separately
Assay: Intrinsic clearance in mouse liver microsomes preincubated for 5 mins followed by NADPH addition and measured after 5 to 60 mins by LC-MS/MS analysis
Format: ADME, Microsome
Details: time 5-60 min, read-out: CLH

| SMILES | microsomal CLint [µL/min/mg] |
| --- | --- |
| COc1ccc2c(c1)[C@]13CCCC[C@@H]1[C@H](C2)N(C)CC3 [DEXTROMETHORPHAN] | 83.3 |

Test system: not listed separately
Assay: Half life in mouse liver microsomes preincubated for 5 mins followed by NADPH addition and measured after 5 to 60 mins by LC-MS/MS analysis
Format: ADME, Microsome
Details: time 5-60 min

| SMILES | half-life [min] |
| --- | --- |
| COc1ccc2c(c1)[C@]13CCCC[C@@H]1[C@H](C2)N(C)CC3 [DEXTROMETHORPHAN] | 16.6 |

Biological target: NACHT, LRR and PYD domains-containing protein 3 (Mus musculus) (UniProt Q8R4B8)
Sequence (Q8R4B8 whole entry, the tested form may be a part): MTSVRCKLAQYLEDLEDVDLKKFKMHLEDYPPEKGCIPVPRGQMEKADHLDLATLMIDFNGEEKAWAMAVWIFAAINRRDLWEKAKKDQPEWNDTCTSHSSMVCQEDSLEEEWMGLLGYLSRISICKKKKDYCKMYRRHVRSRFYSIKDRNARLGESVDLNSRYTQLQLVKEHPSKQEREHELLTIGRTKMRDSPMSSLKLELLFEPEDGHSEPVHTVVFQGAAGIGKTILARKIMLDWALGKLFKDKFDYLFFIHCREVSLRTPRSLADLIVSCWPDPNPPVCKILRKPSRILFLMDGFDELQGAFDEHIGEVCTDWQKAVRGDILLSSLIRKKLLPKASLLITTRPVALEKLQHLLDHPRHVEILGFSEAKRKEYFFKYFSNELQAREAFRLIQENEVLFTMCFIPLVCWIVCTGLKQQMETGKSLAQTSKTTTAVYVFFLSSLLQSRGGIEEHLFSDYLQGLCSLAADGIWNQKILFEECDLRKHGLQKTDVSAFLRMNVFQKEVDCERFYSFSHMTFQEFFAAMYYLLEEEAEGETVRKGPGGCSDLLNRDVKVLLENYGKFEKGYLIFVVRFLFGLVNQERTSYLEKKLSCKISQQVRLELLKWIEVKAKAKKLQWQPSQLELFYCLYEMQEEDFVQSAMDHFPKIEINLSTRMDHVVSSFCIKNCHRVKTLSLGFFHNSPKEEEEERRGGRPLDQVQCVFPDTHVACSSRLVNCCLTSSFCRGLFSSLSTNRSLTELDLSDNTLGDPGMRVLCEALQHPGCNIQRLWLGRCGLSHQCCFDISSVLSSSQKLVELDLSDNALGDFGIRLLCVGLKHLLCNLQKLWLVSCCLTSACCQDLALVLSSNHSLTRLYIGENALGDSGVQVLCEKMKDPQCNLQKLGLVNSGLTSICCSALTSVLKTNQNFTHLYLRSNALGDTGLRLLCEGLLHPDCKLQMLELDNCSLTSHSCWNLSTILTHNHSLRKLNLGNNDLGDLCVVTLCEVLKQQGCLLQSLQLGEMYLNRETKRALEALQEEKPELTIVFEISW
Assay: (§1) Inhibition of NLRP3 inflammasome activation in LPS-stimulated mouse J774A.1 cells assessed as inhibition of cell pyrolysis at 10 uM incubated for 1 hr followed by ATP addition and measured after 30 mins by Hoechst 33342/propidium iodide staining based high content screening method relative to control
Details: J774.A1, time 1.5 hrs

| SMILES | inhibition [%] |
| --- | --- |
| COc1cc(/C=C/c2ccc(OCC(=O)NC3CCCCC3)cc2)c(/C=C/[N+](=O)[O-])c(OC)c1 | 25.6 |
| COCC(=O)Nc1ccc(/C=C/c2cc(OC)cc(OC)c2/C=C/[N+](=O)[O-])cc1 | 60 |
| COc1cc(/C=C/c2ccc(OCC(=O)NCCc3ccccc3)cc2)c(/C=C/[N+](=O)[O-])c(OC)c1 | 26.2 |
| COc1cc(/C=C/c2ccc(NC(=O)CCCl)cc2)c(/C=C/[N+](=O)[O-])c(OC)c1 | 70.5 |
| COc1cc(/C=C/c2ccc(O)cc2)c(/C=C/[N+](=O)[O-])c(OC)c1 | 13.3 |
| COc1cc(/C=C/c2ccc(OCC(=O)NCc3ccc(Br)cc3)cc2)c(/C=C/[N+](=O)[O-])c(OC)c1 | 24 |
| COc1cc(/C=C/c2ccc(NC(=O)C3CCCC3)cc2)c(/C=C/[N+](=O)[O-])c(OC)c1 | 45.7 |
| COc1cc(/C=C/c2ccc(NC(=O)CCl)cc2)c(/C=C/[N+](=O)[O-])c(OC)c1 | 90 |
| COc1cc(/C=C/c2ccc(NC(=O)C3CCCCC3)cc2)c(/C=C/[N+](=O)[O-])c(OC)c1 | 28.7 |
| COc1cc(/C=C/c2ccc(OCC(=O)NCc3ccccc3)cc2)c(/C=C/[N+](=O)[O-])c(OC)c1 | 27.9 |
| C=C1C(=O)[C@]23[C@H](O)[C@H]1CC[C@H]2[C@@]12CO[C@]3(O)[C@@H](O)[C@@H]1C(C)(C)CC[C@@H]2O [ORIDONIN] | 69.5 |
| COc1cc(/C=C/c2ccc(OCC(=O)NCc3ccc(Cl)cc3)cc2)c(/C=C/[N+](=O)[O-])c(OC)c1 | 30.7 |
| COc1cc(/C=C/c2ccc(OCC(=O)NC3CCN(C(=O)OC(C)(C)C)CC3)cc2)c(/C=C/[N+](=O)[O-])c(OC)c1 | 33 |
| CCCCC(=O)Nc1ccc(/C=C/c2cc(OC)cc(OC)c2/C=C/[N+](=O)[O-])cc1 | 36 |
| COc1cc(/C=C/c2ccc(OCC(=O)Nc3ccc(Cl)cc3)cc2)c(/C=C/[N+](=O)[O-])c(OC)c1 | 22.1 |
| COc1cc(/C=C/c2ccc(NC(=O)CC(C)(C)C)cc2)c(/C=C/[N+](=O)[O-])c(OC)c1 | 9.89 |
| COc1cc(/C=C/c2ccc(OCC(=O)Nc3ccc(F)cc3)cc2)c(/C=C/[N+](=O)[O-])c(OC)c1 | 40.7 |
| CCCC(=O)Nc1ccc(/C=C/c2cc(OC)cc(OC)c2/C=C/[N+](=O)[O-])cc1 | 48.9 |
| COc1cc(/C=C/c2ccc(NC(=O)OC(C)(C)C)cc2)c(/C=C/[N+](=O)[O-])c(OC)c1 | 24 |
| COc1cc(/C=C/c2ccc(OCC(=O)NCc3ccccc3)cc2)cc(OC)c1 | 9.65 |
| COc1cc(NC(=O)COc2ccc(/C=C/c3cc(OC)cc(OC)c3/C=C/[N+](=O)[O-])cc2)cc(OC)c1 | 20.1 |
| COc1cc(/C=C/c2ccc(OCC(=O)NCc3ccc(C)cc3)cc2)c(/C=C/[N+](=O)[O-])c(OC)c1 | 24.1 |
| COc1cc(/C=C/c2ccc(OCC(=O)NCc3ccc(C#N)cc3)cc2)c(/C=C/[N+](=O)[O-])c(OC)c1 | 34.4 |
| C=CCCCOc1ccc(/C=C/c2cc(OC)cc(OC)c2/C=C/[N+](=O)[O-])cc1 | 26.8 |
| COc1ccc(CNC(=O)COc2ccc(/C=C/c3cc(OC)cc(OC)c3/C=C/[N+](=O)[O-])cc2)cc1 | 11.8 |

Test system: not listed separately
Assay: Half life in human liver microsomes preincubated for 5 mins followed by NADPH addition and measured after 5 to 60 mins by LC-MS/MS analysis
Format: ADME, Microsome
Details: not given

| SMILES | half-life [min] |
| --- | --- |
| COc1ccc2c(c1)[C@]13CCCC[C@@H]1[C@H](C2)N(C)CC3 [DEXTROMETHORPHAN] | 31.2 |

Biological target: NACHT, LRR and PYD domains-containing protein 3 (Mus musculus, UniProt Q8R4B8)
Sequence (Q8R4B8 whole entry, the tested form may be a part): as above
Assay: Inhibition of NLRP3 inflammasome activation in LPS-stimulated mouse bone marrow-derived macrophages assessed as reduction in IL-1beta secretion preincubated for 30 mins followed by nigericin addition and measured after 30 mins by ELISA
Format: tissue-based, Macrophage
Details: not given

| SMILES | IC50 [µM] |
| --- | --- |
| COc1cc(/C=C/c2ccc(NC(=O)CCCl)cc2)c(/C=C/[N+](=O)[O-])c(OC)c1 | 0.76 |
| COc1cc(/C=C/c2ccc(O)cc2)c(/C=C/[N+](=O)[O-])c(OC)c1 | > 10 |
| COc1cc(/C=C/c2ccc(OCC(=O)NCc3ccc(Br)cc3)cc2)c(/C=C/[N+](=O)[O-])c(OC)c1 | 9.68 |
| COc1cc(/C=C/c2ccc(NC(=O)C3CCCCC3)cc2)c(/C=C/[N+](=O)[O-])c(OC)c1 | > 10 |
| C=C1C(=O)[C@]23[C@H](O)[C@H]1CC[C@H]2[C@@]12CO[C@]3(O)[C@@H](O)[C@@H]1C(C)(C)CC[C@@H]2O [ORIDONIN] | 0.81 |

Test system: not listed separately
Assay: Intrinsic clearance in human liver microsomes preincubated for 5 mins followed by NADPH addition and measured after 5 to 60 mins by LC-MS/MS analysis
Format: ADME, Microsome
Details: time 5-60 min, read-out: CLH

| SMILES | microsomal CLint [µL/min/mg] |
| --- | --- |
| COc1ccc2c(c1)[C@]13CCCC[C@@H]1[C@H](C2)N(C)CC3 [DEXTROMETHORPHAN] | 44.5 |

Test system: not listed separately
Assay: Hepatic clearance in mouse liver microsomes preincubated for 5 mins followed by NADPH addition and measured after 5 to 60 mins by LC-MS/MS analysis
Format: ADME, Microsome
Details: time 5-60 min

| SMILES | CLhep predicted [mL/min/kg] |
| --- | --- |
| COc1ccc2c(c1)[C@]13CCCC[C@@H]1[C@H](C2)N(C)CC3 [DEXTROMETHORPHAN] | 70.6 |

Test system: L02
Assay: Cytotoxicity against human L-02 cells incubated for 24 hrs by MTT assay
Format: cell-based
Details: L02, 24 h

| SMILES | IC50 [µM] |
| --- | --- |
| COc1cc(/C=C/c2ccc(OCC(=O)NC3CCCCC3)cc2)c(/C=C/[N+](=O)[O-])c(OC)c1 | > 100 |
| COCC(=O)Nc1ccc(/C=C/c2cc(OC)cc(OC)c2/C=C/[N+](=O)[O-])cc1 | > 100 |
| COc1cc(/C=C/c2ccc(OCC(=O)NCCc3ccccc3)cc2)c(/C=C/[N+](=O)[O-])c(OC)c1 | > 100 |
| COc1cc(/C=C/c2ccc(NC(=O)CCCl)cc2)c(/C=C/[N+](=O)[O-])c(OC)c1 | > 100 |
| COc1cc(/C=C/c2ccc(O)cc2)c(/C=C/[N+](=O)[O-])c(OC)c1 | > 100 |
| COc1cc(/C=C/c2ccc(OCC(=O)NCc3ccc(Br)cc3)cc2)c(/C=C/[N+](=O)[O-])c(OC)c1 | > 100 |
| COc1cc(/C=C/c2ccc(NC(=O)C3CCCC3)cc2)c(/C=C/[N+](=O)[O-])c(OC)c1 | > 100 |
| COc1cc(/C=C/c2ccc(NC(=O)CCl)cc2)c(/C=C/[N+](=O)[O-])c(OC)c1 | 42.6 |
| COc1cc(/C=C/c2ccc(NC(=O)C3CCCCC3)cc2)c(/C=C/[N+](=O)[O-])c(OC)c1 | > 100 |
| COc1cc(/C=C/c2ccc(OCC(=O)NCc3ccccc3)cc2)c(/C=C/[N+](=O)[O-])c(OC)c1 | > 100 |
| C=C1C(=O)[C@]23[C@H](O)[C@H]1CC[C@H]2[C@@]12CO[C@]3(O)[C@@H](O)[C@@H]1C(C)(C)CC[C@@H]2O [ORIDONIN] | 38.2 |
| COc1cc(/C=C/c2ccc(OCC(=O)NCc3ccc(Cl)cc3)cc2)c(/C=C/[N+](=O)[O-])c(OC)c1 | > 100 |
| COc1cc(/C=C/c2ccc(OCC(=O)NC3CCN(C(=O)OC(C)(C)C)CC3)cc2)c(/C=C/[N+](=O)[O-])c(OC)c1 | > 100 |
| CCCCC(=O)Nc1ccc(/C=C/c2cc(OC)cc(OC)c2/C=C/[N+](=O)[O-])cc1 | > 100 |
| COc1cc(/C=C/c2ccc(OCC(=O)Nc3ccc(Cl)cc3)cc2)c(/C=C/[N+](=O)[O-])c(OC)c1 | > 100 |
| COc1cc(/C=C/c2ccc(NC(=O)CC(C)(C)C)cc2)c(/C=C/[N+](=O)[O-])c(OC)c1 | > 100 |
| COc1cc(/C=C/c2ccc(OCC(=O)Nc3ccc(F)cc3)cc2)c(/C=C/[N+](=O)[O-])c(OC)c1 | > 100 |
| CCCC(=O)Nc1ccc(/C=C/c2cc(OC)cc(OC)c2/C=C/[N+](=O)[O-])cc1 | > 100 |
| COc1cc(/C=C/c2ccc(NC(=O)OC(C)(C)C)cc2)c(/C=C/[N+](=O)[O-])c(OC)c1 | > 100 |
| COc1cc(/C=C/c2ccc(OCC(=O)NCc3ccccc3)cc2)cc(OC)c1 | > 100 |
| COc1cc(NC(=O)COc2ccc(/C=C/c3cc(OC)cc(OC)c3/C=C/[N+](=O)[O-])cc2)cc(OC)c1 | > 100 |
| COc1cc(/C=C/c2ccc(OCC(=O)NCc3ccc(C)cc3)cc2)c(/C=C/[N+](=O)[O-])c(OC)c1 | > 100 |
| COc1cc(/C=C/c2ccc(OCC(=O)NCc3ccc(C#N)cc3)cc2)c(/C=C/[N+](=O)[O-])c(OC)c1 | > 100 |
| C=CCCCOc1ccc(/C=C/c2cc(OC)cc(OC)c2/C=C/[N+](=O)[O-])cc1 | > 100 |
| COc1ccc(CNC(=O)COc2ccc(/C=C/c3cc(OC)cc(OC)c3/C=C/[N+](=O)[O-])cc2)cc1 | > 100 |

Biological target: NACHT, LRR and PYD domains-containing protein 3 (Mus musculus) (UniProt Q8R4B8)
Assay: as §1, with “20” for “10”
Details: J774.A1, time 1.5 hrs

| SMILES | inhibition [%] |
| --- | --- |
| COc1cc(/C=C/c2ccc(OCC(=O)NC3CCCCC3)cc2)c(/C=C/[N+](=O)[O-])c(OC)c1 | 41.8 |
| COc1cc(/C=C/c2ccc(OCC(=O)NCCc3ccccc3)cc2)c(/C=C/[N+](=O)[O-])c(OC)c1 | 46.2 |
| COc1cc(/C=C/c2ccc(O)cc2)c(/C=C/[N+](=O)[O-])c(OC)c1 | 31.5 |
| COc1cc(/C=C/c2ccc(OCC(=O)NCc3ccc(Br)cc3)cc2)c(/C=C/[N+](=O)[O-])c(OC)c1 | 34.9 |
| COc1cc(/C=C/c2ccc(OCC(=O)NCc3ccccc3)cc2)c(/C=C/[N+](=O)[O-])c(OC)c1 | 57.9 |
| C=C1C(=O)[C@]23[C@H](O)[C@H]1CC[C@H]2[C@@]12CO[C@]3(O)[C@@H](O)[C@@H]1C(C)(C)CC[C@@H]2O [ORIDONIN] | 83.3 |
| COc1cc(/C=C/c2ccc(OCC(=O)NCc3ccc(Cl)cc3)cc2)c(/C=C/[N+](=O)[O-])c(OC)c1 | 49.6 |
| COc1cc(/C=C/c2ccc(OCC(=O)NC3CCN(C(=O)OC(C)(C)C)CC3)cc2)c(/C=C/[N+](=O)[O-])c(OC)c1 | 42.3 |
| COc1cc(/C=C/c2ccc(OCC(=O)Nc3ccc(Cl)cc3)cc2)c(/C=C/[N+](=O)[O-])c(OC)c1 | 40.1 |
| COc1cc(/C=C/c2ccc(OCC(=O)Nc3ccc(F)cc3)cc2)c(/C=C/[N+](=O)[O-])c(OC)c1 | 49.6 |
| COc1cc(/C=C/c2ccc(OCC(=O)NCc3ccccc3)cc2)cc(OC)c1 | 15.4 |
| COc1cc(NC(=O)COc2ccc(/C=C/c3cc(OC)cc(OC)c3/C=C/[N+](=O)[O-])cc2)cc(OC)c1 | 39.8 |
| COc1cc(/C=C/c2ccc(OCC(=O)NCc3ccc(C)cc3)cc2)c(/C=C/[N+](=O)[O-])c(OC)c1 | 31.9 |
| COc1cc(/C=C/c2ccc(OCC(=O)NCc3ccc(C#N)cc3)cc2)c(/C=C/[N+](=O)[O-])c(OC)c1 | 59.9 |
| C=CCCCOc1ccc(/C=C/c2cc(OC)cc(OC)c2/C=C/[N+](=O)[O-])cc1 | 33.5 |
| COc1ccc(CNC(=O)COc2ccc(/C=C/c3cc(OC)cc(OC)c3/C=C/[N+](=O)[O-])cc2)cc1 | 23.1 |

Test system: not listed separately
Assay: Hepatic clearance in human liver microsomes preincubated for 5 mins followed by NADPH addition and measured after 5 to 60 mins by LC-MS/MS analysis
Format: ADME, Microsome
Details: time 5-60 min

| SMILES | CLhep predicted [mL/min/kg] |
| --- | --- |
| COc1ccc2c(c1)[C@]13CCCC[C@@H]1[C@H](C2)N(C)CC3 [DEXTROMETHORPHAN] | 14.8 |
